The results in this text go back to PubChem BioAssay AID1259407 (Chemical Carcinogenesis Research Information System (CCRIS), 2018).

For this series, the system named is CCRIS mutagenicity, Ames/micronucleus/aberration tests. The experiment in a line: CCRIS mutagenicity studies.
Setting [1] is: Test System: AMES SALMONELLA TYPHIMURIUM, Strain/Indicator: TA98, Metabolic Activation: NONE, Method: STANDARD PLATE.
Where [2] appears, read: Test System: AMES SALMONELLA TYPHIMURIUM, Strain/Indicator: TA98, Metabolic Activation: RAT, LIVER, S-9, AROCLOR 1254, Method: STANDARD PLATE.
[3] abbreviates: Test System: AMES SALMONELLA TYPHIMURIUM, Strain/Indicator: TA100, Metabolic Activation: NONE, Method: STANDARD PLATE.
[4] abbreviates: Test System: AMES SALMONELLA TYPHIMURIUM, Strain/Indicator: TA100, Metabolic Activation: RAT, LIVER, S-9, AROCLOR 1254, Method: STANDARD PLATE.
Where [5] appears, read: Test System: AMES SALMONELLA TYPHIMURIUM, Strain/Indicator: TA1535, Metabolic Activation: NONE, Method: STANDARD PLATE.
Where [6] appears, read: Test System: AMES SALMONELLA TYPHIMURIUM, Strain/Indicator: TA1535, Metabolic Activation: RAT, LIVER, S-9, AROCLOR 1254, Method: STANDARD PLATE.
Setting [7] is: Test System: AMES SALMONELLA TYPHIMURIUM, Strain/Indicator: TA1538, Metabolic Activation: NONE, Method: STANDARD PLATE.

Activity calls are given as the source filed them. The rule behind the calls is not given here.

As for `CN1CCC=C2c3nc(N)sc3CCC21` (centres undefined), the mutagenic call was “inactive; negative” under setting [1]; “active; positive” under setting [2]; “inactive; negative” under setting [3]; “active; positive” under setting [4]; “inactive; negative” under setting [5]; “inactive; negative” under setting [6]. Further, the mutagenic call was “inactive; negative” (Test System: AMES SALMONELLA TYPHIMURIUM, Strain/Indicator: TA1537, Metabolic Activation: NONE, Method: STANDARD PLATE); “inactive; negative” (Test System: AMES SALMONELLA TYPHIMURIUM, Strain/Indicator: TA1537, Metabolic Activation: RAT, LIVER, S-9, AROCLOR 1254, Method: STANDARD PLATE); “inactive; negative” under setting [7].

`O=c1cc(-c2ccc(O)cc2)oc2cc(O)cc(O)c12`: the mutagenic call was “inactive; negative” (Test System: AMES SALMONELLA TYPHIMURIUM, Strain/Indicator: TA97, Metabolic Activation: NONE, Method: STANDARD PLATE); “inactive; negative” (Test System: AMES SALMONELLA TYPHIMURIUM, Strain/Indicator: TA97, Metabolic Activation: RAT, LIVER, S-9, AROCLOR 1254, Method: STANDARD PLATE); “inactive; negative” under setting [1]; “inactive; negative” under setting [2]; “inactive; negative” under setting [3]; “inactive; negative” under setting [4]. Also, the mutagenic call (Test System: AMES SALMONELLA TYPHIMURIUM, Strain/Indicator: TA102, Metabolic Activation: NONE, Method: STANDARD PLATE) is “inactive; negative”; the mutagenic call (Test System: AMES SALMONELLA TYPHIMURIUM, Strain/Indicator: TA102, Metabolic Activation: RAT, LIVER, S-9, AROCLOR 1254, Method: STANDARD PLATE) was “inactive; negative”; the mutagenic call under setting [5] is “inactive; negative”; the mutagenic call under setting [6] is “inactive; negative”; the mutagenic call under setting [7] was “inactive; negative”; the mutagenic call (Test System: AMES SALMONELLA TYPHIMURIUM, Strain/Indicator: TA1538, Metabolic Activation: RAT, LIVER, S-9, AROCLOR 1254, Method: STANDARD PLATE) is “inactive; negative”. The mutagenic call is, setting by setting: (Test System: Mouse lymphoma, Strain/Indicator: L5178Y (tk+/tk-), Metabolic Activation: None, Method: Suspension/plate) “active; positive”; (Test System: Mouse lymphoma, Strain/Indicator: L5178Y (tk+/tk-), Metabolic Activation: Rat, Liver, S-9, Aroclor 1254, Method: Suspension/plate) “active; positive”.

For `CCOC(=O)c1ccccc1C(=O)OCC`, the mutagenic call reads like this: (Test System: AMES SALMONELLA TYPHIMURIUM, Strain/Indicator: TA98, Metabolic Activation: HAMSTER, LIVER, S-9, AROCLOR 1254 (10%), Method: PREINCUBATION) “inactive; negative”; (Test System: AMES SALMONELLA TYPHIMURIUM, Strain/Indicator: TA98, Metabolic Activation: NONE, Method: PREINCUBATION) “inactive; negative”; (Test System: AMES SALMONELLA TYPHIMURIUM, Strain/Indicator: TA98, Metabolic Activation: RAT, LIVER, S-9, AROCLOR 1254 (10%), Method: PREINCUBATION) “inactive; negative”; (Test System: AMES SALMONELLA TYPHIMURIUM, Strain/Indicator: TA100, Metabolic Activation: HAMSTER, LIVER, S-9, AROCLOR 1254 (10%), Method: PREINCUBATION) “inactive; negative”; (Test System: AMES SALMONELLA TYPHIMURIUM, Strain/Indicator: TA100, Metabolic Activation: NONE, Method: PREINCUBATION) “inactive; negative”; under setting [3], “active; positive”. In addition, the mutagenic call is “inactive; negative” (Test System: AMES SALMONELLA TYPHIMURIUM, Strain/Indicator: TA100, Metabolic Activation: RAT, LIVER, S-9, AROCLOR 1254 (10%), Method: PREINCUBATION); “inactive; negative” (Test System: AMES SALMONELLA TYPHIMURIUM, Strain/Indicator: TA100, Metabolic Activation: S-9, Method: STANDARD PLATE); “inactive; negative” (Test System: AMES SALMONELLA TYPHIMURIUM, Strain/Indicator: TA1535, Metabolic Activation: HAMSTER, LIVER, S-9, AROCLOR 1254 (10%), Method: PREINCUBATION); “inactive; negative” (Test System: AMES SALMONELLA TYPHIMURIUM, Strain/Indicator: TA1535, Metabolic Activation: NONE, Method: PREINCUBATION); “active; positive” under setting [5]; “inactive; negative” (Test System: AMES SALMONELLA TYPHIMURIUM, Strain/Indicator: TA1535, Metabolic Activation: RAT, LIVER, S-9, AROCLOR 1254 (10%), Method: PREINCUBATION). Further, the mutagenic call runs as follows: (Test System: AMES SALMONELLA TYPHIMURIUM, Strain/Indicator: TA1535, Metabolic Activation: S-9, Method: STANDARD PLATE) “inactive; negative”; (Test System: AMES SALMONELLA TYPHIMURIUM, Strain/Indicator: TA1537, Metabolic Activation: HAMSTER, LIVER, S-9, AROCLOR 1254 (10%), Method: PREINCUBATION) “inactive; negative”; (Test System: AMES SALMONELLA TYPHIMURIUM, Strain/Indicator: TA1537, Metabolic Activation: NONE, Method: PREINCUBATION) “inactive; negative”; (Test System: AMES SALMONELLA TYPHIMURIUM, Strain/Indicator: TA1537, Metabolic Activation: RAT, LIVER, S-9, AROCLOR 1254 (10%), Method: PREINCUBATION) “inactive; negative”.
